The text below walks through data of patent US20260206764A1, “AN HERBICIDAL COMBINATION, COMPOSITION AND METHOD OF CONTROLLING WEEDS USING THE SAME” (priority 2023, published 2026).

For experiment [1], the system named is Viola arvensis, Bromus spp., Lolium spp., Agropyron repens and Urtica urens. The note with it: reported by Hoechst et al., 1991; cited from earlier work.
The test system of another experiment is Eleusine indica. Briefly: Greenhouse post-emergence herbicidal efficacy, % weed control. It counts as in vivo. The note with it: for Control %: Table 6, L-glufosinate ammonium 150, quizalofop-p-tefuryl 25 g/ha. The source says: (§1) This effectiveness of all treatments can be evaluated according to Colby's equation. In the Colby's equation given below, E is the expected efficacy of combination of L-glufosinate, salts, esters, or combinations thereof, and an herbicide of the phenoxypropionic herbicide class, • X is the observed efficacy of L-glufosinate, salts, esters, or combinations thereof and • Y is the observed efficacy of the herbicide of the phenoxypropionic herbicide class.
(§2) Observed efficacy values i.e. X and Y are % weed control for L-glufosinate, salts, esters, or combinations thereof and an herbicide of the phenoxypropionic herbicide class. If observed efficacy of combination of L-glufosinate, salts, esters, or combinations thereof and the herbicide of the phenoxypropionic herbicide class is greater than its expected efficacy, then combination is determined to be synergistic. If observed efficacy is equal to or less than expected efficacy, then combination is determined to be non-synergistic.
(§3) Methodology: Greenhouse trials were carried out to evaluate the efficacy of the combination of L-glufosinate ammonium and phenoxypropionic herbicides—haloxyfop, quizalofop-ethyl, quizalofop-P-tefuryl—on weeds Eleusine indica, Brachiaria decumbens, Spermacoce latifolia and Glycine max.
(§4) The soil used was sandy clay loam-Sand: 68.0%; Silt: 8.0%; Clay: 24.0%.
(§5) All treatments were in 4 replications per treatment with a spray volume of […].
(§6) The expected efficacy of a combination of L-glufosinate and the other herbicides was calculated using the well-established Colby method. Any difference between the observed and “expected” efficacy could be attributed to synergy between the two compounds. (Colby, S. R., Weeds, 1967 (15), p. 20-22).
Experiment was conducted to assess the efficacy herbicidal combination comprising L-glufosinate ammonium (glufosinate-p-ammonium) and haloxyfop to control the weed, Eleusine indica.
The percentage efficacy was calculated after 7 days of application (DAA). The target weed was Eleusine indica, and the concentration of the herbicide and the results are recorded in the table 4 below:
Experiment was conducted to assess the efficacy herbicidal combination comprising L-glufosinate ammonium (glufosinate-p-ammonium) and quizalofop-ethyl to control the weed, Eleusine indica.
The percentage efficacy was calculated after 21 days of application (DAA). The target weed was Eleusine indica, and the concentration of the herbicide and the results are recorded in the table 5 below:
Experiment was conducted to assess the efficacy herbicidal combination comprising L-glufosinate ammonium (glufosinate-p-ammonium) and quizalofop-P-tefuryl to control the weed, Eleusine indica.
The percentage efficacy was calculated after 21, 28, 35 days of application (DAA). The target weed was Eleusine indica, and the concentration of the herbicide and the results are recorded in the table 6 below: […]

For a further experiment, the system named is Glycine max. Described as above. It counts as in vivo. The note with it: for % control: Table 8, L-glufosinate ammonium 150, haloxyfop 50 g ai/ha.
Excerpt: as §1, §2, §3, §4, §5, §6
Experiment was conducted to assess the efficacy herbicidal combination comprising L-glufosinate ammonium (glufosinate-p-ammonium) and haloxyfop to control the weed, Glycine max.
The percentage efficacy was calculated after 3, 7, 14, 21, 28, 35 days of application (DAA). The target weed was Glycine max, and the concentration of the herbicide and the results are recorded in the table 8 below:
Experiments were conducted to assess the efficacy of herbicidal combination comprising L-glufosinate ammonium (glufosinate-p-ammonium) and quizalofop-ethyl to control the weedy Glycine max.
The percentage efficacy was calculated after 3, 28 and 35 days of applications (DAA). The target weed was Glycine max, and the concentration of the herbicide and the results are recorded in the table 9 below:
Experiments were conducted to assess the efficacy of herbicidal combination comprising L-glufosinate ammonium (glufosinate-p-ammonium) and quizalofop-p-tefuryl to control the weedy Glycine max.
The percentage efficacy was calculated after 3, 28 and 35 days of applications (DAA). The target weed was Glycine max, and the concentration of the herbicide and the results are recorded in the table 10 below.

In a further experiment the test system is Spermacoce latifolia. Described as above. The note with it: Table 7, L-glufosinate ammonium 150, haloxyfop 50 g/ha. It counts as in vivo.
Excerpt: as §1, §2, §3, §4, §5, §6
Experiment was conducted to assess the efficacy herbicidal combination comprising L-glufosinate ammonium (glufosinate-p-ammonium) and haloxyfop to control the weed, Spermacoce latifolia.
The percentage efficacy was calculated after 7, 14, 21, 28, 35 days of application (DAA). The target weed was Spermacoce latifolia, and the concentration of the herbicide and the results are recorded in the table 7 below: […]

A further experiment deals with Brachiaria decumbens. Described as above. It counts as in vivo.
Excerpt: as §1, §2, §3, §4, §5, §6
Experiment was conducted to assess the efficacy herbicidal combination comprising L-glufosinate ammonium (glufosinate-p-ammonium) and haloxyfop to control the weed, Brachiaria decumbens.
The percentage efficacy was calculated after 7, 14 days of application (DAA). The target weed was Brachiaria decumbens, and the concentration of the herbicide and the results are recorded in the table 1 below:
Experiment was conducted to assess the efficacy herbicidal combination comprising L-glufosinate ammonium (glufosinate-p-ammonium) and quizalofop-ethyl to control the weed, Brachiaria decumbens.
The percentage efficacy was calculated after 28 and 35 days of application (DAA). The target weed was Brachiaria decumbens, and the concentration of the herbicide and the results are recorded in the table 2 below:
Experiment was conducted to assess the efficacy herbicidal combination comprising L-glufosinate ammonium (glufosinate-p-ammonium) and quizalofop-P-tefuryl to control the weed, Brachiaria decumbens.
The percentage efficacy was calculated after 14, 21, 28, 35 days of application (DAA). The target weed was Brachiaria decumbens, and the concentration of the herbicide and the results are recorded in the table 3 below: […]

[2] abbreviates: Table 4, 7 DAA, L-glufosinate ammonium 150, haloxyfop 50 g ai/ha.
Setting [3] is: Table 1, 7 DAA, L-glufosinate ammonium 150, haloxyfop 50 g a.i./ha.
The mark [4] stands for this setting: Table 1, 14 DAA, L-glufosinate ammonium 150, haloxyfop 50 g a.i./ha.
Where [5] appears, read: Table 5, 21 DAA, L-glufosinate ammonium 150, quizalofop-ethyl 25 g ai/ha.
Where [6] appears, read: Table 9, 3 DAA, L-glufosinate ammonium 150, quizalofop-ethyl 25 g/ha.
[7] abbreviates: Table 9, 28 DAA, L-glufosinate ammonium 150, quizalofop-ethyl 25 g/ha.
The mark [8] stands for this setting: Table 9, 35 DAA, L-glufosinate ammonium 150, quizalofop-ethyl 25 g/ha.
The mark [9] stands for this setting: Table 10, 3 DAA, L-glufosinate ammonium 150, quizalofop-p-tefuryl 25 g/h.
The mark [10] stands for this setting: Table 10, 28 DAA, L-glufosinate ammonium 150, quizalofop-p-tefuryl 25 g/h.
The mark [11] stands for this setting: Table 10, 35 DAA, L-glufosinate ammonium 150, quizalofop-p-tefuryl 25 g/h.
[12] abbreviates: Table 2, 28 DAA, L-glufosinate ammonium 150, quizalofop-ethyl 25 g a.i./ha.
[13] abbreviates: Table 2, 35 DAA, L-glufosinate ammonium 150, quizalofop-ethyl 25 g a.i./ha.
The mark [14] stands for this setting: Table 3, 14 DAA, L-glufosinate ammonium 150, quizalofop-p-tefuryl 25 g/ha.
The mark [15] stands for this setting: Table 3, 21 DAA, L-glufosinate ammonium 150, quizalofop-p-tefuryl 25 g/ha.
[16] abbreviates: Table 3, 28 DAA, L-glufosinate ammonium 150, quizalofop-p-tefuryl 25 g/ha.
Where [17] appears, read: Table 3, 35 DAA, L-glufosinate ammonium 150, quizalofop-p-tefuryl 25 g/ha.

For the molecule `CP(=O)(O)CCC(N)C(=O)O` (racemic) [glufosinate, DL-homoalanin-4-yl(methyl)phosphinic acid], the “control of weed species” value in experiment [1] is on record as “either not combated, or only weakly combated”.
With `CC(Oc1ccc(Oc2ncc(C(F)(F)F)cc2Cl)cc1)C(=O)O` (stereo not shown) [Haloxyfop, haloxyfop], the “% control” value in the experiment on Eleusine indica (setting [2]) is listed as 25%; in the experiment on Glycine max (3 DAA), 5%; in the experiment on Glycine max (7 DAA), 13.3%; in the experiment with Glycine max (14 DAA), 15%; in the experiment on Glycine max (21 DAA) it was 12.3%; in the experiment with Glycine max (28 DAA), 12.3%. Further, the “% control” value with Glycine max (35 DAA) turned out to be 12.3%. Moreover, the Control % in the experiment on Spermacoce latifolia (7 DAA) was determined as 8%; in the experiment on Spermacoce latifolia (14 DAA), 8.7%; in the experiment with Spermacoce latifolia (21 DAA), 10%; in the experiment with Spermacoce latifolia (28 DAA), 31%; with Spermacoce latifolia (35 DAA) it was 9.3%; in the experiment on Brachiaria decumbens (setting [3]), 26.7%. Besides, the Control % with Brachiaria decumbens (setting [4]) is given as 75.3%.
`CP(=O)(O)CC[C@H](N)C(=O)O.N` [L-glufosinate ammonium, ammonium (2S)-2-amino-4-(methylphosphinato)butyric acid]: the “% control” value with Eleusine indica (setting [2]) was 50.7%; in the experiment on Eleusine indica (setting [5]), 35%; in the experiment with Glycine max (3 DAA), 15%; in the experiment on Glycine max (7 DAA) it was 53.3%; with Glycine max (14 DAA), 71%; in the experiment on Glycine max (21 DAA), 66.7%. The figures for the “% control” value in the experiment with Glycine max (28 DAA) and in the experiment on Glycine max (35 DAA) were 56.7% and 41.7%, respectively. Also, the Control % with Eleusine indica (21 DAA) was 25%; in the experiment on Eleusine indica (28 DAA), 20%; in the experiment on Eleusine indica (35 DAA) it was 18%; in the experiment with Glycine max (setting [6]), 50%; with Glycine max (setting [7]), 40%; in the experiment with Glycine max (setting [8]) it was 40%. For the same molecule, the Control % in the experiment on Glycine max (setting [9]) worked out at 50%; with Glycine max (setting [10]) it was 60%; with Glycine max (setting [11]), 55%; with Spermacoce latifolia (7 DAA), 31.7%; in the experiment on Spermacoce latifolia (14 DAA), 81.7%; in the experiment on Spermacoce latifolia (21 DAA), 83.3%. In addition, the Control % is recorded as 83.3% in the experiment with Spermacoce latifolia (28 DAA); 83.3% in the experiment on Spermacoce latifolia (35 DAA); 50% with Brachiaria decumbens (setting [3]); 79.3% in the experiment with Brachiaria decumbens (setting [4]); 60% in the experiment on Brachiaria decumbens (setting [12]); 55% in the experiment on Brachiaria decumbens (setting [13]). For the same molecule, the Control % turned out to be 75% in the experiment with Brachiaria decumbens (setting [14]), 70% in the experiment with Brachiaria decumbens (setting [15]), 60% in the experiment on Brachiaria decumbens (setting [16]) and 55% in the experiment on Brachiaria decumbens (setting [17]).
For `CCOC(=O)C(C)Oc1ccc(Oc2cnc3cc(Cl)ccc3n2)cc1` (stereo not shown) [quizalofop-ethyl], the “% control” value in the experiment on Eleusine indica (setting [5]) was 95%. Also, the Control % turned out to be 0% in the experiment on Glycine max (setting [6]); 0% in the experiment with Glycine max (setting [7]); 0% in the experiment with Glycine max (setting [8]); 35% with Brachiaria decumbens (setting [12]); 30% with Brachiaria decumbens (setting [13]).
Turning to `C[C@@H](Oc1ccc(Oc2cnc3cc(Cl)ccc3n2)cc1)C(=O)OCC1CCCO1` (stereo partly shown) [quizalofop-p-tefuryl], the Control % in the experiment with Eleusine indica (21 DAA) stood at 10%; in the experiment on Eleusine indica (28 DAA) it was 5%; in the experiment on Eleusine indica (35 DAA) it was 5%; in the experiment with Glycine max (setting [9]) it was 0%; in the experiment with Glycine max (setting [10]), 0%; with Glycine max (setting [11]), 0%. Moreover, the Control % with Brachiaria decumbens (setting [14]) is given as 20%; with Brachiaria decumbens (setting [15]) it was 10%; with Brachiaria decumbens (setting [16]), 5%; with Brachiaria decumbens (setting [17]) it was 5%.
